We go through three molecules from PMC4824752 (Structure (London, England : 1993), 2015).

The target of test [1] is wild type ELIC (Dickeya chrysanthemi, UniProt P0C7B7). Format: cell-based. The settings on record: read-out: EC50, concentration of cysteamine to elicit half maximal channel gating, oocytes, whole cell currents.
Test [2] concerns ELIC with the entire aromatic network of GLIC. Format: cell-based. The settings on record: read-out: EC50, concentration of cysteamine to elicit half maximal channel gating, oocytes.
Test [3] concerns the target ELIC I319F/V260Y (Dickeya chrysanthemi, UniProt P0C7B7, I319F/V260Y). It is filed as cell-based. The settings on record: read-out: EC50, concentration of cysteamine to elicit half maximal channel gating; ELIC I319F/V260Y double mutant, oocytes.
The target in test [4] is ELIC G318F/V260Y (Dickeya chrysanthemi, UniProt P0C7B7, G318F/V260Y). Format: cell-based. The settings on record: read-out: EC50, concentration of cysteamine to elicit half maximal channel gating; ELIC G318F/V260Y double mutant, oocytes.
In test [5] the target is ELIC L308W (Dickeya chrysanthemi, UniProt P0C7B7, L308W). The test can be described thus: Two-electrode voltage clamp dose response to cysteamine, ELIC L308W mutant. It is filed as cell-based.
Test [6] deals with human muscle-type nAChR C418W. Format: cell-based. The settings on record: C418W relative to wild type.
The subject of test [7] is GLIC aromatic-to-Ala mutants at the M4-M1/M3 interface. The settings on record: Fig. S4.
For test [8], the system named is ELIC aliphatic-to-aromatic mutants at the M4-M1/M3 interface. The settings on record: Fig. S4.

`NCCS` [cysteamine]: the EC50 in test [1] was determined as 940 ± 160 µM; in test [2] it was 150 ± 40 µM; in test [3], 130 µM; in test [4], 130 µM; in test [5] (read-out: EC50, concentration of cysteamine to elicit half maximal channel gating, ELIC L308W, oocytes), 290 ± 50 µM. Also, in test [5] (L308W relative to wild type ELIC), the “magnitude of the L308W gain of function relative to the wild type ELIC” value is given as approximately 5 fold.
Regarding `CC(=O)OCC[N+](C)(C)C` [acetylcholine], the “potentiation of nAChR channel function by C418W (EC50 wild type vs C418W)” value in test [6] is given as “roughly 25 fold”.
Take `CC(C)c1cccc(C(C)C)c1O` [propofol, 2,6 diisopropylphenol]: the “effect of aromatic-to-Ala substitutions on propofol inhibition” value in test [7] was “None of the aromatic-to-Ala substitutions at the M4-M1/M3 interface of GLIC or the aliphatic-to-aromatic substitutions at the same interface in ELIC, however, had a major effect on propofol inhibition”. Moreover, the “effect of aliphatic-to-aromatic substitutions on propofol inhibition” value in test [8] was “None of the aromatic-to-Ala substitutions at the M4-M1/M3 interface of GLIC or the aliphatic-to-aromatic substitutions at the same interface in ELIC, however, had a major effect on propofol inhibition”.
